# BindingDB's records for doi:10.1021/jm00129a003 (Abbott Laboratories, 1989)
# Experiments:
# [1] = target: T1, Gonadotropin-releasing hormone receptor (Rattus norvegicus, UniProt P30969); assay: Dissociation constant was determined in vitro using rat pituitary membranes, at concentration 1.0*10e-5 M
# T1 sequence (P30969 whole entry): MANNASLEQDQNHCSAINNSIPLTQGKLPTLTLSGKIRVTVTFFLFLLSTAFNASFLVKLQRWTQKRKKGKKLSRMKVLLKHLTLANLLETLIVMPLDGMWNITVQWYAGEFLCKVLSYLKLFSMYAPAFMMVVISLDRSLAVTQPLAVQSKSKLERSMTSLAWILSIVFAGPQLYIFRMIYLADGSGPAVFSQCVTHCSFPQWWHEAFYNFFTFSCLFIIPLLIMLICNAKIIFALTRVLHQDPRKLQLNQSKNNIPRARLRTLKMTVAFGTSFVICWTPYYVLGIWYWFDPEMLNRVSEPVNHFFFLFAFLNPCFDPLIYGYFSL
# [2] = target: T1, Gonadotropin-releasing hormone receptor; assay: Dissociation constant was determined in vitro using rat pituitary membranes and [125I]-leuprolide as radioligand, at concentration 3.16*10e-6 M
compound,measurement,setting,value
CC(=O)N1CCN(c2ccc(OC[C@@H]3CO[C@@](Cn4ccnc4)(c4ccc(Cl)cc4Cl)O3)cc2)CC1 [Nizoral],Kd,[1],375 nM
same,Kd,[2],221 nM
